# Source: ChEMBL document CHEMBL5634091, “Cantharidin analogue alleviates dextran sulfate sodium-induced colitis in mice by inhibiting the activation of NF-κB signaling” (Eur J Med Chem, 2023)
# The source made the active and inactive calls. The calls are words filed in the database; no cut-off is given here.
# What was measured:
# DLD-1 [1] = experiment: Inhibition of TNF-alpha induced MAPK signaling pathway activation in human DLD-1 cells assessed as decrease in phospho-JNK protein expression at 12.5 uM preincubated for 4 hrs and followed TNF-alpha stimulation and measured after 10 mins by Western blot analysis; type: cell-based; settings: time 250.0 min
# [2] = Toxicity in C57BL/6 mouse model of DSS-induced acute ulcerative colitis assessed as effect on heart tissue at 100 to 300 mg/kg, po administered once a day for 7 days by H and E staining based analysis; type: organism-based; settings: in vivo, 168 h, dose 100-300 mg/kg, time 7 day
# Mus musculus [3] = experiment: Anti-inflammatory activity in po dosed C57BL/6 mouse model of DSS-induced acute ulcerative colitis assessed as reduction in COX2 mRNA expression in colon administered once a day for 7 days by RT-PCR analysis; type: functional, organism-based; settings: dose 100-300 mg/kg, time 7.0 day
# Mus musculus [4] = experiment: Anti-inflammatory activity in po dosed C57BL/6 mouse model of DSS-induced acute ulcerative colitis assessed as reduction in IL-6 mRNA expression in colon administered once a day for 7 days by RT-PCR analysis; type: functional, organism-based; settings: dose 100-300 mg/kg, time 7.0 day
# DLD-1 [5] = experiment: Activation of MAPK signaling pathway in TNF-alpha stimulated human DLD-1 cells assessed as increase in phospho-ERK protein expression at 50 uM preincubated for 4 hrs and followed TNF-alpha stimulation and measured after 10 mins by Western blot analysis; type: cell-based; settings: filed as activator, time 250.0 min
# [6] = Toxicity in Kunming mouse assessed as increase in body weight at 400 mg/kg, po measured for 15 days (reference value: 12.38%); type: organism-based; settings: in vivo, 360 h, time 15 day
# [7] = Toxicity in C57BL/6 mouse model of DSS-induced acute ulcerative colitis assessed as effect on kidney tissue at 100 to 300 mg/kg, po administered once a day for 7 days by H and E staining based analysis; type: organism-based; settings: in vivo, 168 h, dose 100-300 mg/kg, time 7 day
# [8] = Selectivity index, ratio of CC50 for cytotoxicity against TNF-alpha induced HEK293T cells to IC50 for inhibition of TNF-alpha induced NF-kappaB activation in HEK293T cells; type: toxicity, cell-based; settings: human, HEK293T cells induced with TNF-alpha; read-out: Ratio IC50
# [9] = Toxicity in C57BL/6 mouse model of DSS-induced acute ulcerative colitis assessed as effect on stomach at 100 to 300 mg/kg, po administered once a day for 7 days by H and E staining based analysis; type: organism-based; settings: in vivo, 168 h, dose 100-300 mg/kg, time 7 day
# DLD-1 [10] = experiment: Effect on p38 protein expression in TNF-alpha stimulated human DLD-1 cells at 6.25 to 50 uM preincubated for 4 hrs and followed TNF-alpha stimulation and measured after 10 mins by Western blot analysis; type: functional, cell-based; settings: dose 6.25-50 µM, time 250.0 min
# HCT-116 = experiment: Activation of MAPK signaling pathway in TNF-alpha stimulated human HCT-116 cells assessed as increase in phospho-ERK protein expression at 50 uM preincubated for 4 hrs and followed TNF-alpha stimulation and measured after 10 mins by Western blot analysis; type: cell-based; settings: filed as activator, time 250.0 min
# DLD-1 [11] = experiment: Inhibition of TNF-alpha induced MAPK signaling pathway activation in human DLD-1 cells assessed as decrease in phospho-ERK protein expression at 12.5 uM preincubated for 4 hrs and followed TNF-alpha stimulation and measured after 10 mins by Western blot analysis; type: cell-based; settings: time 250.0 min
# [12] = Toxicity in Kunming mouse assessed as number of mouse survived at 667 mg/kg, po measured for 15 days; type: organism-based; settings: in vivo, 360 h, time 15 day
# DLD-1 [13] = experiment: Cytotoxicity against human DLD-1 cells assessed as induction of stress response at 50 uM; type: toxicity, cell-based; settings: dld-1, 50 µM
smiles,measurement,setting,value
COC(=O)C1=C(C(=O)OC)C2OC1CC2C#Cc1ccc(C)cc1 (centres undefined),inhibition,DLD-1 [1],Active
same,Activity,[2],Non-Toxic
same,Activity,Mus musculus [3],Dose-Dependent Effect
same,Activity,Mus musculus [4],Dose-Dependent Effect
same,Activity,DLD-1 [5],Active
same,Activity,[6],13.21%
same,Activity,[7],Non-Toxic
same,selectivity ratio,[8],5.85
same,Activity,[9],Non-Toxic
same,Activity,DLD-1 [10],inactive
same,Activity,HCT-116,Active
same,inhibition,DLD-1 [11],Active
same,Activity,[12],0
same,Activity,DLD-1 [13],Toxic
